Test [1] deals with platelets produced from megakaryocytes. Description: Flow cytometry analysis of platelet receptors (CD41, CD42b, CD61, CD49b) on produced platelets. It counts as cell-based, human. As to conditions: for proportion of platelets expressing CD42b receptor: compound in megakaryocyte suspension during 2 h perfusion vs without (10 μM ROCK inhibitor; 25 μM GM6001); for proportion of CD41+/CD42b+ platelet: compound during 2 hours of perfusion, without or with previous introduction during culture stage. How it is done: (§1) CD34^+ cells were isolated from human umbilical cord blood (UCB) by an immunomagnetic technique (Miltenyi Biotec, Paris, France) as previously reported (see Poirault-Chassac et al, “Notch/Delta4 signaling inhibits human megakaryocytic terminal differentiation”, Blood, vol. 116, no 25, p. 5670-5678, 2010). These blood samples were obtained after informed consent and approval from our Institute Ethics Committee and in accordance with the Declaration of Helsinki. CD34^+ cells were cultured in a humid atmosphere at 37° C. in 5% CO2 in complete medium consisting of Iscove modified Dulbecco medium (IMDM; Gibco Life Technologies, Saint-Aubin, France) supplemented with 15% BIT 9500 serum substitute (Stem Cells Technologies, Grenoble, France), α-monothioglycerol (Sigma-Aldrich, Saint-Quentin Fallavier, France) and liposomes (phosphatidyl-choline, cholesterol and oleic acid; SigmaAldrich). Human recombinant stem cell factor (SCF, 20 ng/mL; Miltenyi Biotec) and thrombopoietin peptide agonist AF13948 (TPO, 50 nM) (see Dunois-Lardé et al, “Exposure of human megakaryocytes to high shear rates accelerates platelet production”, Blood, vol. 114, no 9, p. 1875-1883, 2009) were added once at day 0 to the culture medium followed by addition of 20 nM TPO without SCF at day 5. Mature megakaryocytes are obtained after 12-14 days of culture. Removal of platelets formed during culture and immediately prior to shear exposure was performed by means of a BSA gradient according to the methods reported in (Robert A, Cortin V, Gamier A, Pineault N. Megakaryocyte and platelet production from human cord blood stem cells. Methods Mol Biol. 2012; 788: 219-47). The concentration was then adjusted to 200 000 megakaryocytes/mL. 10 μM ROCK inhibitor (Y27632, Sigma Aldrich, Saint Quentin Fallavier, France) may be added to the culture of megakaryocytes at day 8 of culture. Addition of 10 μM ROCK inhibitor was performed before introducing megakaryocytes suspension into the inlet chamber of the microfluidic device. 6.25 μM nicotinamide (N0636, Sigma Aldrich, Saint Quentin Fallavier, France) was added to the culture of megakaryocytes at day 8 of culture. Addition of 6.25 μM nicotinamide was performed before introducing megakaryocyte suspension into the inlet chamber of the microfluidic device. 20 μM blebbistatin (203390, Calbiochem) was added to the culture of megakaryocytes at day 8 of culture. Addition of 20 μM blebbistatin was performed before introducing megakaryocyte suspension into the inlet chamber of the microfluidic device. 10 μM latrunculin-A (sc202691, Santa Cruz Biotechnology) was added to the culture of megakaryocytes at day 8 of culture. Addition of 10 μM latrunculin-A was performed before introducing megakaryocyte suspension into the inlet chamber of the microfluidic device. 25 μM GM6001 (ab120845, Abcam) was added to the culture of megakaryocytes at day 8 of culture. Addition of 25 μM GM6001 was performed before introducing megakaryocyte suspension into the inlet chamber of the microfluidic device
Platelet production in the microfluidic device of geometry 2 was compared to control samples, consisting of platelet production from twenty-four hours static condition without the microfluidic chip. Expression of CD41 and CD42 antigens was characterized using a flow cytometer BD Fluorescence Accuri C6 ® (BD Biosciences, Le Pont de Claix, France). Platelets were incubated with fluorescein isothiocyanate (FITC)-conjugated anti-human CD41 (αIIb), R-phycoerythrin (PE)-conjugated anti-human CD42b (GPIbα) (both from Beckman Coulter, Villepinte, France) and FITC-conjugated anti-human activated αIIbb3 (BD Biosciences) during 15 minutes at 22° C., Controls were performed using FITC mouse IgG1 (Beckman Coulter), PE mouse IgG1 (Beckman Coulter). Single color flow cytometry analysis of platelet receptors was performed using the GP screen assay (Biocytex, Marseille, France). […]
A general note: In flow cytometry, cells or beads pass a laser one at a time.

Test [2] concerns megakaryocytes. Description: Megakaryocyte capture and elongation in the microfluidic device (surface density of captured and elongated megakaryocytes). The settings on record: for elongation process and beads-on-a-thread structure formation: compound added to megakaryocyte suspension during perfusion (10 μM ROCK inhibitor; 6.25 μM nicotinamide). It counts as cell-based, human. How it is done:
as §1
All the devices are composed of 16 parallel channels organized in a serpentine shape (FIG. 16). The channels were textured on the straight parts (13.2 cm long) and patterned with the parameters: r=15 μm, H=50 μm, H/h=1.
The microfluidic chip was set on the stage of an inverted microscope (DMI6000 B, Leica Microsystems GmbH, Germany). A computer assisted motorized stage control was used to record positions along the channel length. We recorded observation field positions and alternated recording images between them along the experiment time. Differential interference contrast objective was used to record movies and images between 10× and 40×. A CMOS high-speed camera (Fastcam SA3, Photron, USA) was used to record images at frequencies from 0.5 to 1500 Hz.
Surface captured cells were counted manually from the recorded channel images, and cells in suspension were counted with a hematocytometer.

For test [3], the system named is megakaryocytes. Description: Platelet release in the microfluidic device after two hours of perfusion, hemocytometer counting. It counts as cell-based, human. As to conditions: compound in suspension during 2 h perfusion stage, absent during culture stage (10 μM ROCK inhibitor; 6.25 μM nicotinamide). How it is done:
CD34^+ cells were isolated from human umbilical cord blood (UCB) by an immunomagnetic technique (Miltenyi Biotec, Paris, France) as previously reported (see Poirault-Chassac et al, “Notch/Delta4 signaling inhibits human megakaryocytic terminal differentiation”, Blood, vol. 116, no 25, p. 5670-5678, 2010). These blood samples were obtained after informed consent and approval from our Institute Ethics Committee and in accordance with the Declaration of Helsinki. CD34^+ cells were cultured in a humid atmosphere at 37° C. in 5% CO2 in complete medium consisting of Iscove modified Dulbecco medium (IMDM; Gibco Life Technologies, Saint-Aubin, France) supplemented with 15% BIT 9500 serum substitute (Stem Cells Technologies, Grenoble, France), α-monothioglycerol (Sigma-Aldrich, Saint-Quentin Fallavier, France) and liposomes (phosphatidyl-choline, cholesterol and oleic acid; SigmaAldrich). Human recombinant stem cell factor (SCF, 20 ng/mL; Miltenyi Biotec) and thrombopoietin peptide agonist AF13948 (TPO, 50 nM) (see Dunois-Lardé et al, “Exposure of human megakaryocytes to high shear rates accelerates platelet production”, Blood, vol. 114, no 9, p. 1875-1883, 2009) were added once at day 0 to the culture medium followed by addition of 20 nM TPO without SCF at day 5. Mature megakaryocytes are obtained after 12-14 days of culture. […]

Test [4] relates to platelets produced from megakaryocytes. Kind of test: Activation of produced platelets by TRAP-6 (PAC1 binding, fibrinogen adhesion, tubulin/actin immunofluorescence). It counts as cell-based, human.
Procedure: Image acquisition was performed with an Axio Observer microscope (Zeiss) at 40×1.6-fold magnification with a QIClick-F-CLR-12 Digital CCD Camera (Q Imaging). Platelets are adherent to fibrinogen.
FIG. 8 is a picture showing two colors flow cytometry analysis of platelets receptors with or without activation of the CD41/CD61 receptor by the agonist peptide of the PAR-1 thrombin receptor (TRAP6). (A) Histogram indicates, within the platelet gate, the % of PAC-1/CD42b positive elements before (black bars) or after (gray bars) TRAP-6 activation of platelets produced in the microfluidic device from megakaryocytes suspension in the absence (+/+2 h) or the presence (+/+2 h Ri) of ROCK inhibitor (Ri). […] No Ri was added during the culture stage. n=1.
Platelet production in the microfluidic device of geometry 2 was compared to control samples, consisting of platelet production from twenty-four hours static condition without the microfluidic chip. Expression of CD41 and CD42 antigens was characterized using a flow cytometer BD Fluorescence Accuri C6 ® (BD Biosciences, Le Pont de Claix, France). […] The number of antigenic sites is determined by converting the fluorescence intensity into corresponding numbers of monoclonal antibodies bound per platelet based on a calibrated bead standard curve. […]
Test [5] has as its system megakaryocytes. The settings on record: cited from earlier work; for megakaryocyte ploidy / polyploidization: culture conditions, literature.
[6] abbreviates: 10 μM ROCK inhibitor in suspension during perfusion, absent during culture stage, count after 35 min of perfusion.
Setting [7] is: channels coated at 40 μg·mL^−1, t=35 min, ROCK inhibitor in culture (day 8) and perfusion.

Take `CNC(=O)[C@H](Cc1c[nH]c2ccccc12)NC(=O)[C@@H](CC(=O)NO)CC(C)C` [GM6001, N-[(2R)-2-(hydroxamidocarbonylmethyl)-4-methylpentanoyl]-L-tryptophan methylamide]: the “proportion of platelet CD42b+” value in test [1] (GM6001 during the culture as well as during the 2 hours perfusion stage) was “increased”. Further, the “proportion of platelets expressing CD42b receptor” value in test [1] is “higher”.
`O=S(=O)(c1cccc2c(O)nccc12)N1CCCNCC1` [ROCK inhibitor, 1-(1-Hydroxy-5-isoquinolinesulfonyl)homopiperazine]: the “characteristics of produced platelets (CD61, CD42b, CD49b receptor density) vs platelets isolated from blood” value in test [1] (ROCK inhibitor during 2 h perfusion, FIG. 6) is “comparable to those of natural platelets”. Also, the “proportion of platelets expressing CD42b receptor” value in test [1] is given as “higher”. Besides, in the test with megakaryocytes [2] (setting [6]), the “captured megakaryocytes density, ROCK inhibitor added vs not added” value stood at 1.42±0.13 fold and the “elongated megakaryocytes density, ROCK inhibitor added vs not added” value was 2.98±0.28 fold. Besides, in the test on megakaryocytes [2], the “elongation process and beads-on-a-thread structure formation” value is listed as “No differences”. In addition, the “platelet release vs suspension without compound” value in the test on megakaryocytes [3] is reported as “significant higher platelet release”. For the same compound, in test [4] (ROCK inhibitor during 2 h perfusion, platelets adherent to fibrinogen, FIG. 7), the “tubulin conformation of produced platelets upon TRAP-6 stimulation” value is listed as “tubulin conformation typical of a transient activation”. In test [4] (platelets from suspension with ROCK inhibitor, FIGS. 8 and 9), the “conformation of the αIIbβ3 receptors (PAC1 binding) upon TRAP-6 stimulation” value was “activated conformation”.
Consider `Cc1ccc2c(c1)C(=O)C1(O)CCN(c3ccccc3)C1=N2` (centres unmarked) [blebbistatin, 1-Phenyl-1,2,3,4-tetrahydro-4-hydroxpyrrolo[2,3-b]-7-methylquinolin-4-one], for which the “proportion of CD41+/CD42b+ platelet” value in test [1] is listed as “higher”.
As for `C/C1=C/C(=O)O[C@@H]2C[C@@H](CC[C@H](C)/C=C\C=C\CC1)O[C@@](O)([C@@H]1CSC(=O)N1)C2` [latrunculin, Latrunculin A], the “proportion of CD41+/CD42b+ platelet” value in test [1] is listed as “higher”. For the same compound, the “megakaryocyte ploidy / polyploidization” value in the test on megakaryocytes [5] is listed as “increase”. The megakaryocyte apoptosis activation result with megakaryocytes [5] (literature (Avanzi et al)) is recorded as “increase”.
Turning to `NC(=O)c1cccnc1` [nicotinamide, pyridine-3-carboxamide], in test [1], the “proportion of CD41+/CD42b+ platelet” value was “higher”. Also, the “elongation process and beads-on-a-thread structure formation” value in the test on megakaryocytes [2] is on record as “No differences”. Besides, the “megakaryocyte ploidy / polyploidization” value in the test with megakaryocytes [5] was “increases”. Further, the “platelet release vs suspension without compound” value with megakaryocytes [3] is recorded as “higher platelet release”.
Take “VWF: Human von Willebrand factor, used as surface coating of the platelet production channel”: in the test on megakaryocytes [2] (setting [7]), the “captured megakaryocytes density, VWF coating vs BSA coating” value is listed as 5.86±1 fold and the “elongated megakaryocytes density, VWF coating vs BSA coating” value is 7.72±1.32 fold.

Source of the values: patent publication US20230347344A1, “COMBINATION OF PHARMACOLOGICAL AND MICROFLUIDIC FEATURES FOR IMPROVED PLATELETS PRODUCTION” (HEMOSTOD SA, priority 2015, published 2023).
